Consider 24 compounds from US12060347B2 (BRISTOL-MYERS SQUIBB COMPANY, priority 2016, dated 2024).

The term IC50 denotes the concentration at which inhibition is half-maximal.

Structures are written as SMILES. Where a name gives a salt, the structure may show the parent alone.

The target in this assay is T1, human PAR4 (Homo sapiens, UniProt Q96RI0).
T1 construct: expressed in transfected cells; host or cells: HEK293 PAR4 Clone 1.2A (BMS Arctic ID 383940)
T1 sequence (Q96RI0 18-385): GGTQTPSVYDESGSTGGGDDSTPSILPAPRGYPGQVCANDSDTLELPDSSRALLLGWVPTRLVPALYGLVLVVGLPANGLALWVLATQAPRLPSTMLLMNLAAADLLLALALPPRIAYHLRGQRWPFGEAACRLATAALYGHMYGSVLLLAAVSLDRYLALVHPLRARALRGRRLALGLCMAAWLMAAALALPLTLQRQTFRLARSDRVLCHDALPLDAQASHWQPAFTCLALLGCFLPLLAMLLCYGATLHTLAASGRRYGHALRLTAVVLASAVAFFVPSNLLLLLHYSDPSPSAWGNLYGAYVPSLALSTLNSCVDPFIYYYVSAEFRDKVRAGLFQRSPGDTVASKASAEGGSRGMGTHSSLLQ
Description: PAR4 FLIPR assay: antagonism of agonist-peptide-induced calcium mobilization in PAR4-expressing HEK293 cells. It is filed as cell-based. The note with it: H-Ala-Phe(4-F)-[…]NH2-induced intracellular calcium mobilization, 11-point curves.

For `COc1cnc2c(-c3nc4cc(F)c(O[C@@H](C)[C@@H](C)OC(=O)Nc5cnc(C(C)(C)O)nc5)cc4s3)cc(C)cc2n1` [Example 501, (2R,3S)-3-((5-fluoro-2-(2-methoxy-7-methylquinoxalin-5-yl)benzo[d]thiazol-6-yl)oxy)butan-2-yl (2-(2-hydroxypropan-2-yl)pyrimidin-5-yl)carbamate], the IC50 stood at 4 nM.
The result for `COc1cnc2c(-c3nc4cc(F)c(O[C@@H](C)[C@@H](C)OC(=O)Nc5cnc(CO)nc5)cc4s3)cc(C)cc2n1` [Example 502, (2R,3S)-3-((5-fluoro-2-(2-methoxy-7-methylquinoxalin-5-yl)benzo[d]thiazol-6-yl)oxy)butan-2-yl (2-(hydroxymethyl)pyrimidin-5-yl)carbamate] reads 1.7 nM; that for `COc1cnc2c(-c3nc4cc(F)c(O[C@@H](C)[C@@H](C)OC(=O)Nc5cnc(OCCO)nc5)cc4s3)cc(Cl)cc2c1` [Example 512, (2R,3S)-3-((2-(6-chloro-3-methoxyquinolin-8-yl)-5-fluorobenzo[d]thiazol-6-yl)oxy)butan-2-yl (2-(2-hydroxyethoxy)pyrimidin-5-yl)carbamate], 1.2 nM; that for `CCOc1cnc2c(-c3nc4cc(F)c(O[C@@H](C)[C@@H](C)OC(=O)Nc5cnc(OCCO)nc5)cc4s3)cc(Cl)cc2c1` [Example 513, (2R,3S)-3-((2-(6-chloro-3-ethoxyquinolin-8-yl)-5-fluorobenzo[d]thiazol-6-yl)oxy)butan-2-yl (2-(2-hydroxyethoxy)pyrimidin-5-yl)carbamate], 1.1 nM.
As for `COc1cnc2c(-c3nc4cc(F)c(O[C@@H](C)[C@@H](C)OC(=O)Nc5cnc(OCCO)nc5)cc4s3)cc(C)cc2c1` [Example 514, (2R,3S)-3-((5-fluoro-2-(3-methoxy-6-methylquinolin-8-yl)benzo[d]thiazol-6-yl)oxy)butan-2-yl (2-(2-hydroxyethoxy)pyrimidin-5-yl)carbamate], the figure is 1.9 nM; as for `C[C@H](Oc1cc2sc(-c3cc(Cl)cc4cc(OC(F)F)cnc34)nc2cc1F)[C@@H](C)OC(=O)Nc1cnc(OCCO)nc1` [Example 515, (2R,3S)-3-((2-(6-chloro-3-(difluoromethoxy)quinolin-8-yl)-5-fluorobenzo[d]thiazol-6-yl)oxy)butan-2-yl (2-(2-hydroxyethoxy)pyrimidin-5-yl)carbamate], 2.6 nM.
The result for `CC[C@H](COc1cc2sc(-c3cc(C)cc4nc(OC)cnc34)nc2cc1F)OC(=O)Nc1cccnc1` [Example 517, (R)-1-((5-fluoro-2-(2-methoxy-7-methylquinoxalin-5-yl)benzo[d]thiazol-6-yl)oxy)butan-2-yl pyridin-3-ylcarbamate] reads 1.1 nM; that for `COc1cnc2c(-c3nc4c(Cl)c(F)c(OCCCC(=O)Nc5cccnc5)cc4s3)cc(C)cc2n1` [Example 518, 4-((4-chloro-5-fluoro-2-(2-methoxy-7-methylquinoxalin-5-yl)benzo[d]thiazol-6-yl)oxy)-N-(pyridin-3-yl)butanamide], 13 nM.
With `COc1cnc2c(-c3nc4c(Cl)c(F)c(OCCNC(=O)Nc5cccnc5)cc4s3)cc(C)cc2n1` [Example 519, 1-(2-((4-chloro-5-fluoro-2-(2-methoxy-7-methylquinoxalin-5-yl)benzo[d]thiazol-6-yl)oxy)ethyl)-3-(pyridin-3-yl)urea], the IC50 was found to be 16 nM.
As for `COc1cnc2c(-c3nc4c(Cl)c(F)c(OCCN(C)C(=O)Nc5cnc(C)nc5)cc4s3)cc(C)cc2n1` [Example 520, 1-(2-((4-chloro-5-fluoro-2-(2-methoxy-7-methylquinoxalin-5-yl)benzo[d]thiazol-6-yl)oxy)ethyl)-1-methyl-3-(2-methylpyrimidin-5-yl)urea], the figure is 77 nM.
As for `COc1cnc2c(-c3nc4cc(F)c(O[C@@H](C)[C@@H](C)OC(=O)Nc5ccc(CN6CCOCC6)nc5)cc4s3)cc(C)cc2n1` [Example 521, (2R,3S)-3-((5-fluoro-2-(2-methoxy-7-methylquinoxalin-5-yl)benzo[d]thiazol-6-yl)oxy) butan-2-yl (6-(morpholinomethyl)pyridin-3-yl)carbamate], the figure is 24 nM.
Take `Cc1cc(-c2nc3cc(F)c(O[C@@H](C)[C@@H](C)OC(=O)Nc4cnc(C)nc4)cc3s2)c2ncc(N(C)C)nc2c1` [Example 522, (2R,3S)-3-((2-(2-(dimethylamino)-7-methylquinoxalin-5-yl)-5-fluorobenzo[d]thiazol-6-yl)oxy)butan-2-yl (2-methylpyrimidin-5-yl)carbamate]: the concentration for half-maximal inhibition (IC50) turned out to be 20 nM.
The result for `COc1cnc2c(-c3nc4cc(F)c(O[C@@H](C)[C@@H](C)OC(=O)Nc5ccc(C(=O)O)nc5)cc4s3)cc(C)cc2n1` [Example 523, 5-(((((2R,3S)-3-((5-fluoro-2-(2-methoxy-7-methylquinoxalin-5-yl)benzo[d]thiazol-6-yl)oxy)butan-2-yl)oxy)carbonyl)amino)picolinic acid, TFA] reads 2.6 nM.
The result for `COc1cnc2c(-c3nc4cc(F)c(O[C@@H](C)[C@@H](C)OC(N)=O)cc4s3)cc(C)cc2n1` [Example 524, (2R,3S)-3-((5-fluoro-2-(2-methoxy-7-methylquinoxalin-5-yl)benzo[d]thiazol-6-yl)oxy) butan-2-yl carbamate] reads 84 nM; that for `CCOc1cnc2c(-c3nc4cc(F)c(O[C@@H](C)[C@@H](C)OC(=O)Nc5ccc(CCO)nc5)cc4s3)cc(C)cc2n1` [Example 526, (2R,3S)-3-((2-(2-ethoxy-7-methylquinoxalin-5-yl)-5-fluorobenzo[d]thiazol-6-yl)oxy)butan-2-yl (6-(2-hydroxyethyl)pyridin-3-yl)carbamate], 2 nM; that for `CCOc1cnc2c(-c3nc4cc(F)c(O[C@@H](C)[C@@H](C)OC(=O)Nc5ccc(C(=O)NCC(C)(C)O)nc5)cc4s3)cc(C)cc2n1` [Example 527, (2R,3S)-3-((2-(2-ethoxy-7-methylquinoxalin-5-yl)-5-fluorobenzo[d]thiazol-6-yl)oxy)butan-2-yl (6-((2-hydroxy-2-methylpropyl)carbamoyl)pyridin-3-yl)carbamate], 1.4 nM.
Consider `[2H]C([2H])(O)c1ncc(NC(=O)O[C@H](C)[C@H](C)Oc2cc3sc(-c4cc(C)cc5nc(OC)cnc45)nc3cc2F)cn1` [Example 528, (2R,3S)-3-((5-fluoro-2-(2-methoxy-7-methylquinoxalin-5-yl)benzo[d]thiazol-6-yl)oxy)butan-2-yl (2-(hydroxymethyl)pyrimidin-5-yl)carbamate], for which the IC50 stood at 5 nM.
Consider `CCOc1cnc2c(-c3nc4cc(F)c(O[C@@H](C)[C@@H](C)OC(=O)Nc5cnc(CO)nc5)cc4s3)cc(C)cc2n1` [Example 529, (2R,3S)-3-((2-(2-ethoxy-7-methylquinoxalin-5-yl)-5-fluorobenzo[d]thiazol-6-yl)oxy)butan-2-yl (2-(hydroxymethyl)pyrimidin-5-yl)carbamate], for which the half-inhibitory concentration (IC50) came to 0.9 nM.
In the case of `COc1cnc2c(-c3nc4cc(F)c(OC[C@@H](C)OC(=O)Nc5ccc(C(=O)NCC(C)(C)OP(=O)(O)O)nc5)cc4s3)cc(C)cc2n1` [Example 530, (R)-1-((5-fluoro-2-(2-methoxy-7-methylquinoxalin-5-yl)benzo[d]thiazol-6-yl)oxy) propan-2-yl (6-((2-methyl-2-(phosphonooxy)propyl)carbamoyl)pyridin-3-yl)carbamate, TFA], the IC50 stood at 1.8 nM.
The result for `CCOc1cnc2c(-c3nc4cc(F)c(O[C@@H](C)[C@@H](C)OC(=O)Nc5ccc(C(=O)NC[C@H](C)O)nc5)cc4s3)cc(C)cc2n1` [Example 531, (2R,3S)-3-((2-(2-ethoxy-7-methylquinoxalin-5-yl)-5-fluorobenzo[d]thiazol-6-yl)oxy)butan-2-yl (6-(((S)-2-hydroxypropyl)carbamoyl)pyridin-3-yl)carbamate, TFA] reads 0.7 nM; that for `CCOc1cnc2c(-c3nc4cc(F)c(O[C@@H](C)[C@@H](C)OC(=O)Nc5cnc(COP(=O)(O)O)nc5)cc4s3)cc(C)cc2n1` [Example 532, (2R,3S)-3-((2-(2-ethoxy-7-methylquinoxalin-5-yl)-5-fluorobenzo[d]thiazol-6-yl)oxy)butan-2-yl (2-((phosphonooxy)methyl)pyrimidin-5-yl)carbamate], 1.7 nM; that for `COc1cnc2c(-c3nc4cc(F)c(O[C@@H](C)[C@@H](C)OC(=O)Nc5cncc(O)c5)cc4s3)cc(C)cc2n1` [Example 533, (2R,3S)-3-((5-fluoro-2-(2-methoxy-7-methylquinoxalin-5-yl)benzo[d]thiazol-6-yl)oxy)butan-2-yl (5-hydroxypyridin-3-yl)carbamate], 0.7 nM.
As for `COc1cnc2c(-c3nc4cc(F)c(O[C@@H](C)[C@@H](C)OC(=O)Nc5cncc(OCCO)c5)cc4s3)cc(C)cc2n1` [Example 534, (2R,3S)-3-((5-fluoro-2-(2-methoxy-7-methylquinoxalin-5-yl)benzo[d]thiazol-6-yl)oxy) butan-2-yl (5-(2-hydroxyethoxy)pyridin-3-yl)carbamate], the figure is 0.9 nM.
The result for `CCOc1cnc2c(-c3nc4cc(F)c(O[C@@H](C)[C@@H](C)OC(=O)Nc5cnc([C@H](C)O)nc5)cc4s3)cc(C)cc2n1` [Example 535, (2R,3S)-3-((2-(2-ethoxy-7-methylquinoxalin-5-yl)-5-fluorobenzo[d]thiazol-6-yl)oxy)butan-2-yl (2-((S)-1-hydroxyethyl)pyrimidin-5-yl)carbamate] reads 5.2 nM.
